Test results from patent US20140121216A1, “INDOLEAMINE DERIVATIVES FOR THE TREATMENT OF CENTRAL NERVOUS SYSTEM DISEASES” (Adamed Sp. z o.o., priority 2011, published 2014).

What was measured:
[1] = target: T1, 5-HT2C receptor, human recombinant (HEK-293 cells) (Homo sapiens, UniProt P28335); experiment: Binding assay, 5-HT2C receptor ([3H]mesulergine); settings: for 5-HT2C [%] binding assay result: compound 1×10^−6 M
T1 construct: expressed in transfected cells; host or cells: HEK-293 cells
T1 sequence (P28335 33-458): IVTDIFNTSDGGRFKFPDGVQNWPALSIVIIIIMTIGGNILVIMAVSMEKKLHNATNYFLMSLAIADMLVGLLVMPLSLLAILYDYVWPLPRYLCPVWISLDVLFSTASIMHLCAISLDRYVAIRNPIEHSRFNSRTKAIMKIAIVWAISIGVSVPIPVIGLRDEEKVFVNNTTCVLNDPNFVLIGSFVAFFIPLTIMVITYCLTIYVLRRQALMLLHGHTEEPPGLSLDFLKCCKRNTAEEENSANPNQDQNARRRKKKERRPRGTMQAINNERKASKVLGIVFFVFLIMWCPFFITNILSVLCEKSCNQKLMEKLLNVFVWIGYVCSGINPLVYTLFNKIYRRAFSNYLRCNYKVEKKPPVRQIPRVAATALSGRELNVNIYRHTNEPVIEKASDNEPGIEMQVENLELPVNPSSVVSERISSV
Experimental: (§1) Moreover, ability of the compounds of the invention to block potassium channel hERG was tested.
(§2) The specific ligand binding to the receptors is defined as the difference between the total binding and the non-specific binding determined in the presence of an excess of unlabelled ligand.
(§3) The inhibition constants (Ki) were calculated using the Cheng Prusoff equation (Ki=IC50/(1+(L/KD)), where L=concentration of radioligand in the assay, and KD=affinity of the radioligand for the receptor). A Scatchard plot is used to determine the Kd. The IC50 values (concentration causing a half-maximal inhibition of control specific binding) and Hill coefficients (nH) were determined by non-linear regression analysis of the competition curves generated with mean replicate values using Hill equation curve fitting (Y=D+[(A−D)/(1+(C/C50)^nH)], where Y=specific binding, D=minimum specific binding, A=maximum specific binding, C=compound concentration, C50=IC50, and nH=slope factor).

[2] = test system: α1 adrenergic receptors (rat cerebral cortex); experiment: Binding assay, α1 adrenergic receptor ([3H]prazosin); settings: for α1 [%] affinity test result: compound 1×10^−6 M; for Ki: read-out: Inhibition constant Ki α1
Experimental: as §2
as §3, with “factor). This analysis was performed using a software developed at Cerep (Hill software) and validated by comparison with data generated by the commercial software SigmaPlot® 4.0 for Windows® (©1997 by SPSS Inc.).” for “factor).”
(§4) Experimental conditions for tests are given in Table 7, and results of tests for representative compounds are given in Tables 8a and 8b (α1 receptors) and in Tables 9a and 9b (α2C receptors).

[3] = target: T2, α2C adrenergic receptors, human recombinant (CHO cells) (Homo sapiens, UniProt P18825); experiment: Binding assay, α2C adrenergic receptor ([3H]RX 821002); settings: for α2C [%] affinity test result: compound 1×10^−6 M; for Ki: read-out: Inhibition constant Ki α2C
T2 construct: expressed in transfected cells; host or cells: CHO cells
T2 sequence (P18825 1-462): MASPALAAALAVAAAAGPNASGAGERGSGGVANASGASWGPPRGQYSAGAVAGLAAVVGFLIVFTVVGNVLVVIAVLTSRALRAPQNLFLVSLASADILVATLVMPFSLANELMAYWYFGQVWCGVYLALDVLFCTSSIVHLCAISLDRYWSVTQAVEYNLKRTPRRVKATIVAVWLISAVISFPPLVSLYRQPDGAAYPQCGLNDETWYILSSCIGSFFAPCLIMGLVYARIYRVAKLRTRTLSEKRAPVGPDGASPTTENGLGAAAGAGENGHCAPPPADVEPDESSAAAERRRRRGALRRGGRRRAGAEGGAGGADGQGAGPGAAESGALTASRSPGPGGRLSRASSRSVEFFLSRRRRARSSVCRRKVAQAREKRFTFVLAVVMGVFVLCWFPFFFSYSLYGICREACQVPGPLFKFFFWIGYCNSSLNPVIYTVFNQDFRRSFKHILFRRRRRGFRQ
Experimental: as §1, §2
as §3, with “factor). This analysis was performed using a software developed at Cerep (Hill software) and validated by comparison with data generated by the commercial software SigmaPlot® 4.0 for Windows® (©1997 by SPSS Inc.).” for “factor).”
as §4

[4] = target: T3, H1 histaminergic receptors, human recombinant (HEK-293 cells) (Homo sapiens, UniProt P35367); experiment: Binding assay, H1 histaminergic receptor ([3H]pyrilamine); settings: for H1 [%] affinity test result: compound 1×10^−6 M; for Ki: read-out: Inhibition constant Ki H1
T3 construct: expressed in transfected cells; host or cells: HEK-293 cells
T3 sequence (P35367 whole entry): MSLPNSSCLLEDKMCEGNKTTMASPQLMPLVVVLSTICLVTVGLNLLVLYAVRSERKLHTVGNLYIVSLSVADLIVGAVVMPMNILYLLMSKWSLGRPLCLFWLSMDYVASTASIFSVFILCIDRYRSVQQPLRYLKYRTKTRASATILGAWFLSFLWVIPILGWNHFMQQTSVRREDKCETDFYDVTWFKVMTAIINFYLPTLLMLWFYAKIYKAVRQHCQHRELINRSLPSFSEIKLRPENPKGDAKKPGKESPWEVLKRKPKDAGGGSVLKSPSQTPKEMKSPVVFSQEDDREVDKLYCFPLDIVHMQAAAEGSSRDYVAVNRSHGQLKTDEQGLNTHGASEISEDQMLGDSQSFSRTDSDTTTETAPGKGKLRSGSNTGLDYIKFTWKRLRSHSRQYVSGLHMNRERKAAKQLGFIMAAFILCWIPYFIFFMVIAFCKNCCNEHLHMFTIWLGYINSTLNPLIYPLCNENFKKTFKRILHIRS
Experimental: as §1, §2
as §3, with “factor). This analysis was performed using a software developed at Cerep (Hill software) and validated by comparison with data generated by the commercial software SigmaPlot® 4.0 for Windows® (©1997 by SPSS Inc.).” for “factor).”
Experimental conditions for tests are given in Table 14, and results of tests for representative compounds are given in Table 15a and 15b.

[5] = target: T4, 5-HT2A (h), human recombinant (HEK-293 cells) (Homo sapiens, UniProt P28223); experiment: Cellular functional assay 5-HT2A (h) antagonism; assay type: cell-based; settings: compound 1×10^−6 M; stimulus serotonin 100 nM
T4 construct: expressed in transfected cells; host or cells: HEK-293 cells
T4 sequence (P28223 whole entry): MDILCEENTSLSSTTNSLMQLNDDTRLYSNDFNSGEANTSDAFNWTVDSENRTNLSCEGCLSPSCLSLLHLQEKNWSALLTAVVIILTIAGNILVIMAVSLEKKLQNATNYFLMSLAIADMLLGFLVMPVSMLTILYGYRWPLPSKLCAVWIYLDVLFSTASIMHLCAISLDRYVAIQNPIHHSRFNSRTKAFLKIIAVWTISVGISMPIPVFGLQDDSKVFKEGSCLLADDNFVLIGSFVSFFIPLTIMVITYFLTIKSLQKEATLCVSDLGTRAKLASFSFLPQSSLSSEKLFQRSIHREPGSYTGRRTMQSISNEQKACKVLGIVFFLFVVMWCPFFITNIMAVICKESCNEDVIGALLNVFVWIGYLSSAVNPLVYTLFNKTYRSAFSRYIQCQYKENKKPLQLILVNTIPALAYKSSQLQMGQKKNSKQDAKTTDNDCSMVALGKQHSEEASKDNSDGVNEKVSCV
Experimental: The results are expressed as a percent of control specific agonist response ((measured specific response/control specific agonist response)×100) obtained in the presence of tested compound.
The EC50 values (concentration producing a half-maximal specific response) and IC50 values (concentration causing a half-maximal inhibition of the control specific agonist response) were determined by non-linear regression analysis of the concentration-response curves generated with mean replicate values using Hill equation curve fitting (Y=D+[(A−D)/(1+(C/C50)nH)], where Y=specific response, D=minimum specific response, A=maximum specific response, C=compound concentration, and C50=EC50 or IC50, and nH=slope factor).
For the antagonists, the apparent dissociation constants (Kb) were calculated using the modified Cheng Prusoff equation (Kb=IC50/(1+(A/EC50A)), where A=concentration of reference agonist in the assay, and EC50A=EC50 value of the reference agonist).

[6] = target: T5, hERG potassium channels (KCNH2 gene, expressed in CHO cells) (Homo sapiens, UniProt Q12809); experiment: Ability to block hERG potassium channel, electrophysiology (IonWorks Quattro); assay type: cell-based; settings: for hERG [%] (% block of hERG current): compound 1×10^−5 M; for Ki: read-out: Inhibition constants Ki for hERG potassium channels (column head H1 [nM])
T5 construct: expressed in transfected cells; host or cells: CHO cells
T5 sequence (Q12809 whole entry): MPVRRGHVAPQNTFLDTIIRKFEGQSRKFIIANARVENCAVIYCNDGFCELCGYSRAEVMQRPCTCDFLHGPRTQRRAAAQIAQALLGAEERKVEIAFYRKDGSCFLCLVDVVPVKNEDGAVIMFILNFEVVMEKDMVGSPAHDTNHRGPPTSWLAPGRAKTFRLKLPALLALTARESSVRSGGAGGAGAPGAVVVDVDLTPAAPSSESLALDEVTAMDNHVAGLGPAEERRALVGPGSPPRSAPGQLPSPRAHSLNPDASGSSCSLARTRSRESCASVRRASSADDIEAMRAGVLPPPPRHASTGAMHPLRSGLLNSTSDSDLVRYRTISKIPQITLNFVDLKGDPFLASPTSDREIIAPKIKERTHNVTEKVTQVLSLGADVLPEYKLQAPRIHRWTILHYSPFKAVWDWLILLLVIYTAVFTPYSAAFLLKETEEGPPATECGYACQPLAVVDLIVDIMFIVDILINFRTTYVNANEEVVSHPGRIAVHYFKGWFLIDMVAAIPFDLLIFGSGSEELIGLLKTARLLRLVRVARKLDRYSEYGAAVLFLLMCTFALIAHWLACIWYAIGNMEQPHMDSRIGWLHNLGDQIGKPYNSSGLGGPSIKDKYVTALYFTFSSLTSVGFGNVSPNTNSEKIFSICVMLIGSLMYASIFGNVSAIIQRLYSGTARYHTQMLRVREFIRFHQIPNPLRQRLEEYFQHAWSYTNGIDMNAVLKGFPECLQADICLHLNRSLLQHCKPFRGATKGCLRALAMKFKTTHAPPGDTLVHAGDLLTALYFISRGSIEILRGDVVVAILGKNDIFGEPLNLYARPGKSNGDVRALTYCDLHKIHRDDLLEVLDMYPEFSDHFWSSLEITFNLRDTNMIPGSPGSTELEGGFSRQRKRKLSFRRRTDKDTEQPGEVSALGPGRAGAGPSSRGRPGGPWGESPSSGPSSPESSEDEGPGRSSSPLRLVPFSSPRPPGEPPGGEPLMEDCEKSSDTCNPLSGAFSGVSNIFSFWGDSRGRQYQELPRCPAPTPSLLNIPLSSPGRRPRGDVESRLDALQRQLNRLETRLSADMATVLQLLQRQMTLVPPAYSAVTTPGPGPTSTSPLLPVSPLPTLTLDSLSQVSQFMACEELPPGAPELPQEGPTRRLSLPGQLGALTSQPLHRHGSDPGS
Experimental: Ability to block hERG potassium channels was determined using the electrophysiological method and cloned hERG potassium channels (KCNH2 gene, expressed in CHO cells) as biological material. The effects were evaluated using IonWorks™ Quattro system (MDS-AT).
hERG current was elicited using a pulse pattern with fixed amplitudes (conditioning prepulse: −80 mV for 25 ms; test pulse: +40 mV for 80 ms) from a holding potential of 0 mV. hERG current was measured as a difference between the peak current at 1 ms after the test step to +40 mV and the steady-state current at the end of the step to +40 mV.
Data acquisition and analyses were performed using the IonWorks Quattro™ system operation software (version 2.0.2; Molecular Devices Corporation, Union City, Calif.). Data were corrected for leak current.
The hERG block was calculated as: % Block=(1−ITA/IControl)×100%, where IControl and ITA were the currents elicited by the test pulse in control and in the presence of a test compound, respectively.

With O=C1CCc2ccc(OCCCCN3CCN(c4cccc5c4ccn5Cc4cccc(F)c4)CC3)cc2N1 [Compound 63, 7-[4-[4-[1-[(3-Fluorophenyl)methyl]indol-4-yl]piperazin-1-yl]butoxy]-3,4-dihydro-1H-quinolin-2-one] the “5-HT2C [%] binding assay result” value [1] was 89%, the “α1 [%] affinity test result” value [2] was 86% and the “α2C [%] affinity test result” value [3] was 100%. The “H1 [%] affinity test result” value [4] was 81% and the “5-HT2A-antag [%]” value [5] was 63%.
With O=C1CCc2ccc(OCCCCN3CCN(c4cccc5c4ccn5Cc4cccc(Cl)c4)CC3)cc2N1 [Compound 67, 7-[4-[4-[1-[(3-Chlorophenyl)methyl]indol-4-yl]piperazin-1-yl]butoxy]-3,4-dihydro-1H-quinolin-2-one] the “5-HT2C [%] binding assay result” value [1] was 76%, the “α2C [%] affinity test result” value [3] was 97% and the “5-HT2A-antag [%]” value [5] was 34%.
NC(=O)c1ccccc1OCCCN1CCN(c2cccc3c2ccn3S(=O)(=O)c2ccccc2)CC1 [Compound 72, 2-[3-[4-[1-(Benzenesulfonyl)indol-4-yl]piperazin-1-yl]propoxy]-benzamide] was tested, and the “5-HT2C [%] binding assay result” value [1] was 35%, the “α2C [%] affinity test result” value [3] was 74% and the “H1 [%] affinity test result” value [4] was 80%. The “5-HT2A-antag [%]” value [5] was 45%.
O=C1CCc2ccc(OCCCCN3CCN(c4cccc5c4ccn5Cc4ccccc4)CC3)cc2N1 [Compound 5, 7-(4-(4-(1-Benzyl-1H-indol-4-yl)piperazin-1-yl)butoxy)-3,4-dihydroquinolin-2(1H)-one] was tested, and the “5-HT2C [%] binding assay result” value [1] was 86%, the “α1 [%] affinity test result” value [2] was 88% and the “α2C [%] affinity test result” value [3] was 93%. For the same compound, the “H1 [%] affinity test result” value [4] was 88%, the “hERG [%] (% block of hERG current)” value [6] was 30% and the “5-HT2A-antag [%]” value [5] was 66%.
O=C1CCc2ccc(OCCCN3CCN(c4cccc5c4ccn5Cc4ccccc4)CC3)cc2N1 [Compound 4, 7-[3-[4-(1-Benzylindol-4-yl)piperazin-1-yl]propoxy]-3,4-dihydro-1H-quinolin-2-one] was tested, and the “5-HT2C [%] binding assay result” value [1] was 73%, the “α1 [%] affinity test result” value [2] was 68% and the “α2C [%] affinity test result” value [3] was 93%. The “H1 [%] affinity test result” value [4] was 73%, the “hERG [%] (% block of hERG current)” value [6] was 27% and the “5-HT2A-antag [%]” value [5] was 17%.
In the case of O=C1CCc2ccc(OCCCN3CCN(c4cccc5c4ccn5S(=O)(=O)c4ccccc4)CC3)cc2N1 [Compound 23, 7-[3-[4-[1-(Benzensulphonyl)indol-4-yl]piperazin-1-yl]propoxy]-3,4-dihydro-1H-quinolin-2-one], the “5-HT2C [%] binding assay result” value [1] is reported as 0%, the “α1 [%] affinity test result” value [2] is reported as 55% and the Ki [2] is reported as 290 nM. For the same compound, the “α2C [%] affinity test result” value [3] was 32%, the Ki [3] was 440 nM and the “H1 [%] affinity test result” value [4] was 72%. For the same compound, the Ki [4] was 150 nM, the “hERG [%] (% block of hERG current)” value [6] was 7% and the Ki [6] was greater than 10000 nM.
O=C1CCc2ccc(OCCCCN3CCN(c4cccc5c4ccn5S(=O)(=O)c4ccccc4)CC3)cc2N1 [Compound 24, 7-(4-(4-(1-(Phenylsulphonyl)-1H-indol-4-yl)piperazin-1-yl)butoxy)-3,4-dihydroquinolin-2(1H)-one] was tested, and the “5-HT2C [%] binding assay result” value [1] was 48%, the Ki ([1]; read-out: Inhibition constant Ki 5-HT2C) was 610 nM and the “α1 [%] affinity test result” value [2] was 92%. For the same compound, the Ki [2] was 22 nM, the “α2C [%] affinity test result” value [3] was 78% and the Ki [3] was 150 nM. For the same compound, the “H1 [%] affinity test result” value [4] was 78%, the Ki [4] was 100 nM and the “hERG [%] (% block of hERG current)” value [6] was 9%. For the same compound, the Ki [6] was greater than 10000 nM and the “5-HT2A-antag [%]” value [5] was 34.2%.
